# Assay results from ChEMBL document CHEMBL1201862, “PubChem BioAssay data set” (2004).
# The source made the active and inactive calls.
# Assays:
# [1] = target: Peroxisome proliferator-activated receptor gamma/Nuclear receptor coactivator 2 (Homo sapiens, UniProt P37231); assay: TR-FRET dose response biochemical High Throughput Screening assay for agonists of the steroid receptor coactivator 2 (SRC-2) recruitment by the peroxisome proliferator-activated receptor gamma (PPAR gamma): non-selective agonists. [Related pubchem assays: 1297, 1032 ]; type: functional
# Chain of Peroxisome proliferator-activated receptor gamma/Nuclear receptor coactivator 2 (P37231 whole entry): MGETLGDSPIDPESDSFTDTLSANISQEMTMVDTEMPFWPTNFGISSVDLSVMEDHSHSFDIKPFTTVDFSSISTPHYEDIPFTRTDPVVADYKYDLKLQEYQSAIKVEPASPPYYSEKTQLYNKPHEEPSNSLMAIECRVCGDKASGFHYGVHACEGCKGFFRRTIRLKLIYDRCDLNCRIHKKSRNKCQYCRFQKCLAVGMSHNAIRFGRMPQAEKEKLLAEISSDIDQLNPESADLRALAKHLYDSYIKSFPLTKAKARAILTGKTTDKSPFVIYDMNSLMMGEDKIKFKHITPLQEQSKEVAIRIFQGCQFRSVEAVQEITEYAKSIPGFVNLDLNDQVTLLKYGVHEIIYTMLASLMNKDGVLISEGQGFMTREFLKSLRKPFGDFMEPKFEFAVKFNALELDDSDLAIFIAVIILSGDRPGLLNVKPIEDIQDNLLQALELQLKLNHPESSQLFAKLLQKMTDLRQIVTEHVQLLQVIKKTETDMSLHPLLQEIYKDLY
# Chain of Peroxisome proliferator-activated receptor gamma/Nuclear receptor coactivator 2 (Q15596 whole entry, further chain): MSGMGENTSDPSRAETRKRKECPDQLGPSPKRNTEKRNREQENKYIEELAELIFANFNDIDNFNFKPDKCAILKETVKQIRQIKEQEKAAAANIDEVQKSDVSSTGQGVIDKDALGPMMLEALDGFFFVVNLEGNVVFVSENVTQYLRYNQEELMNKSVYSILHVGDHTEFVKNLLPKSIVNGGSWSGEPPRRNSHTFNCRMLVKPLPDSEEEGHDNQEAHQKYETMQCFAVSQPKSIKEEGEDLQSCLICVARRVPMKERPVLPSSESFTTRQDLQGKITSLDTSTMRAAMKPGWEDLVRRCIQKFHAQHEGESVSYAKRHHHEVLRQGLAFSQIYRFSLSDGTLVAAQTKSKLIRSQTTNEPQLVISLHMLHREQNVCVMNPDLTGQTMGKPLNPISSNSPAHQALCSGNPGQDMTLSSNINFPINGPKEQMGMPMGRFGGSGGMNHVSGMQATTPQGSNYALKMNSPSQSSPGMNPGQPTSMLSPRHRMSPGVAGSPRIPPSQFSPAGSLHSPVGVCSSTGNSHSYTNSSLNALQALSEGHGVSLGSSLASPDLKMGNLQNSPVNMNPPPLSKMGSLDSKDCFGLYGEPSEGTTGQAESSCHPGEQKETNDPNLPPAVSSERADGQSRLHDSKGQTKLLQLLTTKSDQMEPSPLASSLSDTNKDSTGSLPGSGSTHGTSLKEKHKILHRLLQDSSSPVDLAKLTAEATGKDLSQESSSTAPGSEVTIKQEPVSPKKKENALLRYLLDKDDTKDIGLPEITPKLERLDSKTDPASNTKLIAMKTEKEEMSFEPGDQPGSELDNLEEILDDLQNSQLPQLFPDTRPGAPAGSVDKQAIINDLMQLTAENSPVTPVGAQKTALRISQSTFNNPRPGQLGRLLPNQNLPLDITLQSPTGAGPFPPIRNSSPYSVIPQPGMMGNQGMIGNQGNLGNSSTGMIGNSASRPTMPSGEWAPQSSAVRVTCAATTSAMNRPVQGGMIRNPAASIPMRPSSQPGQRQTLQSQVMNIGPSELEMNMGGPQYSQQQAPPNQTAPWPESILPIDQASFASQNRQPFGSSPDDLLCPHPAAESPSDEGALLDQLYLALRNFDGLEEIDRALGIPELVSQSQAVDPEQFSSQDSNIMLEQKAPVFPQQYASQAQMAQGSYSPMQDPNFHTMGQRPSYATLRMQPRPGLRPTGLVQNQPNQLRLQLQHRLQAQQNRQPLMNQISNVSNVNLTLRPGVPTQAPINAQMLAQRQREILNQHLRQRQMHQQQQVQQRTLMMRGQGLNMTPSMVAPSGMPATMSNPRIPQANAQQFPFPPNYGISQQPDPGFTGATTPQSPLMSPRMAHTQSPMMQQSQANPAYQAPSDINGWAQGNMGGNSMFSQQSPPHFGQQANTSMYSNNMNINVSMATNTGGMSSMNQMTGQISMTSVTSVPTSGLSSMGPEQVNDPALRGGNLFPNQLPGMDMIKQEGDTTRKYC
# [2] = target: Peroxisome proliferator-activated receptor gamma/Nuclear receptor coactivator 1 (Homo sapiens, UniProt P37231); assay: TR-FRET dose response biochemical High Throughput Screening assay for agonists of the steroid receptor coactivator 1 (SRC-1) recruitment by the peroxisome proliferator-activated receptor gamma (PPAR gamma): non-selective agonists. [Related pubchem assays (depositor defined):AID1300, AID1808, AID504735, AID631]; type: protein assay
# [3] = target: Peroxisome proliferator-activated receptor gamma/Nuclear receptor coactivator 3 (Homo sapiens, UniProt P37231); assay: TR-FRET dose response biochemical High Throughput Screening assay for agonists of the steroid receptor coactivator 3 (SRC-3) recruitment by the peroxisome proliferator-activated receptor gamma (PPAR gamma): non-selective agonists. [Related pubchem assays: 1301 (Confirmation screen.), 1048 (Primary screen.)]; type: functional
# Chain of Peroxisome proliferator-activated receptor gamma/Nuclear receptor coactivator 3 (P37231 whole entry): as the sequence (P37231 whole entry) above
# Chain of Peroxisome proliferator-activated receptor gamma/Nuclear receptor coactivator 3 (Q9Y6Q9 whole entry, further chain): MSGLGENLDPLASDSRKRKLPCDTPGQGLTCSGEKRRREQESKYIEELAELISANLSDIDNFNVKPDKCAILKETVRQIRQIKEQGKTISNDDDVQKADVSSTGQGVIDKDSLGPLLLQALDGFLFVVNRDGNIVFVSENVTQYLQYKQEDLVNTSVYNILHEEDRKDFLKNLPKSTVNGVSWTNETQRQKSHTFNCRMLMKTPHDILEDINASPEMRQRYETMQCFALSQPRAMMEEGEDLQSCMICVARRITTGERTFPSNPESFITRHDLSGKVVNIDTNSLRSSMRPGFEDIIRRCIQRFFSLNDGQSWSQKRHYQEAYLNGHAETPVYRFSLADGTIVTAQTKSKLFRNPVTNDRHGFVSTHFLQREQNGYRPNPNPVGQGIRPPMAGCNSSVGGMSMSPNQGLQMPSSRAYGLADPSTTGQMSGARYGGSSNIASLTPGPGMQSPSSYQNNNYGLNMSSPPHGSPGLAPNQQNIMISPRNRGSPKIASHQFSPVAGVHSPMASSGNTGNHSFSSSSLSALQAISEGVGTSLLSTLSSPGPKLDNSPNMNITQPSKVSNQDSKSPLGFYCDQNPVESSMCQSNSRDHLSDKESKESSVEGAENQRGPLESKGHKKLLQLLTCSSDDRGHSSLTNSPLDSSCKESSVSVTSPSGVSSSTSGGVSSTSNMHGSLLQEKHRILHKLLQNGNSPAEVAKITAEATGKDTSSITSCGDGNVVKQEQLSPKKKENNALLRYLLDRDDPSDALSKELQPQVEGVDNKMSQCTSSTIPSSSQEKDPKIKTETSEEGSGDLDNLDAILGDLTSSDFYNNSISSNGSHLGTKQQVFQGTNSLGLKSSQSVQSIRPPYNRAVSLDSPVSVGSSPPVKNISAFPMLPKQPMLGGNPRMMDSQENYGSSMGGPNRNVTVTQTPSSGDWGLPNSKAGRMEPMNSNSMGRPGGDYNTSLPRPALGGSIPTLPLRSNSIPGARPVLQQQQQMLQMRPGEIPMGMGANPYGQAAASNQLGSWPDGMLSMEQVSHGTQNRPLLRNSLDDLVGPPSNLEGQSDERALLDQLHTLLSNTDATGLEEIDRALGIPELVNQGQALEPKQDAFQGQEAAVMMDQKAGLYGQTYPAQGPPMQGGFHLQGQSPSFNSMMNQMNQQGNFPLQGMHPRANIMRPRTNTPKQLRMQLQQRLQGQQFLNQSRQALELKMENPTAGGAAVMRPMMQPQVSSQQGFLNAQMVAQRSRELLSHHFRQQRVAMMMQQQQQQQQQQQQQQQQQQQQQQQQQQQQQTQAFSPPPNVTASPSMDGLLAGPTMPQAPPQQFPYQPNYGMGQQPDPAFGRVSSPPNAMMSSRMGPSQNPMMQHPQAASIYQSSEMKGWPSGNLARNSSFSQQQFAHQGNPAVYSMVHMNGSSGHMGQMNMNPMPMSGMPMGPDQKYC
# [4] = NIH-3T3 fibroblast cytotoxicity, dose response, cytotoxicity control, cell-based, fluorescence, Alamar Blue, secondary assay (AID 2327); type: functional;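 further: NIH-3T3 mouse fibroblasts cultured with fluconazole at 8 µg/mL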
# Streptococcus = assay: GAS UMAA2166 growth inhibition – luminescence, BacTiterGlo, counter-screen for streptokinase expression inhibitor project, dose response (AID 1915); type: functional, organism-based;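 further: potency for reduction of bacterial viability or growth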
# [5] = fluconazole-exposed Candida albicans growth modulators – fluorescence, retest, confirmation (AID 2467); type: functional, cell-based
# [6] = viability of PTEN-deleted HCT116 cells – cell-based, HCT116 PTEN knockout, dose response (AID 1047); type: functional;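 further: HCT116 colon tumor cells with PTEN knocked out; cells exposed to compound for 60 hours before readout; potency for loss of cell viability measured by luminescence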
# Cysteine protease ATG4B = target: T1, Cysteine protease ATG4B (Homo sapiens, UniProt Q9Y4P1); type: functional;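 further: Fluorescence-based dose-response confirmation assay measuring inhibition of ATG4B activity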
# T1 sequence (Q9Y4P1 whole entry): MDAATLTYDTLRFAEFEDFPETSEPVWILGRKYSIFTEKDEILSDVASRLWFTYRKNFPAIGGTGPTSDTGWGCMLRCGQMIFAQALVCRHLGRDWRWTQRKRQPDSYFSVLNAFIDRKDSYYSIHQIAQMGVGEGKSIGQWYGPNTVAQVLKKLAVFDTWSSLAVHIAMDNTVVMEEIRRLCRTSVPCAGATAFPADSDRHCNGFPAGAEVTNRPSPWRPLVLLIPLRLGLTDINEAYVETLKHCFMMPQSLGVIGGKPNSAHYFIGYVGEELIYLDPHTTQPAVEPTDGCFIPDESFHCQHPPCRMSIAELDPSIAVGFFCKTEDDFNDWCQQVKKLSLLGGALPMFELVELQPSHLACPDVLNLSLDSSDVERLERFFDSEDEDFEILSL
# Phospholipase A2 = Phospholipase A2 (Homo sapiens, UniProt P04054); type: functional;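 further: confirmatory dose-response counterscreen on phospholipase A2, testing hits that came from an ultra-high-throughput screen for ATG4B inhibitors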
# Chain of Phospholipase A2 (P04054 whole entry): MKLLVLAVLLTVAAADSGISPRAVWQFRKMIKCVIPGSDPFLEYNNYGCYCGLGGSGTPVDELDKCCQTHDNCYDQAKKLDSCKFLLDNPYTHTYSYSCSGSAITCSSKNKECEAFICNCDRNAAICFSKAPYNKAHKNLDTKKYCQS
# [7] = Trypanosoma cruzi growth suppression in host cells – NIH3T3 host cells, beta-gal luminescence, confirmation (AID 2044); type: functional, cell-based;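 further: intracellular parasites grown in NIH/3T3 mouse fibroblasts as host cells; luminescent beta-galactosidase reporter signal from transgenic T. cruzi replicating inside host cells; inhibitors lower the luminescence signal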
# Streptokinase A = target: T2, Streptokinase A (Streptococcus pyogenes serotype M1, UniProt P10520); assay: viability-normalized secreted streptokinase activity reduction – plasminogen activation absorbance, OD405, dose response (AID 1914); type: functional, Streptococcus pyogenes M1 GAS;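 further: secreted streptokinase activity via plasminogen activation per viability signal from cell pellet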
# T2 sequence (P10520 whole entry): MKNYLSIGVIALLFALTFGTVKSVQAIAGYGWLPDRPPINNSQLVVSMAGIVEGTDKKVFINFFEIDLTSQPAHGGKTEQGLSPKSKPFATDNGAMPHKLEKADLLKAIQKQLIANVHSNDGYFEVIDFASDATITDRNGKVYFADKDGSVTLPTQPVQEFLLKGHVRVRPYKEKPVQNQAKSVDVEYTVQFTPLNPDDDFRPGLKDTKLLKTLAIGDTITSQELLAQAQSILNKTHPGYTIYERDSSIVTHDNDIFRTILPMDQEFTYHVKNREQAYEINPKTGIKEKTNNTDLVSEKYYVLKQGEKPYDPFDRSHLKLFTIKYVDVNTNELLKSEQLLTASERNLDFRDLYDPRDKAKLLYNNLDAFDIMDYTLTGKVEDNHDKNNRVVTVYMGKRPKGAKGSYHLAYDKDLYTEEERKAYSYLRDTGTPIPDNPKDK
# [8] = system: Streptococcus sp. 'group A'; assay: Streptococcus pyogenes SK(-)GAS viability under kanamycin – luminescence, BacTiterGlo, confirmation, counter-screen for streptokinase expression inhibitor project, dose response (AID 1900); type: functional, organism-based
# Vero = assay: cells; type: functional; conditions: Chlorocebus sabaeus
# [9] = viability of HCT116 lacking mutant beta-catenin – cell-based, human colon tumor, dose response (AID 1045); type: functional;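 further: HCT116 colon tumor cells with beta catenin knocked out; cells exposed to compound for 60 hours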
# [10] = target: T3, DNA repair protein RAD52 homolog (Homo sapiens, UniProt P43351); type: functional, biochemical
# T3 sequence (P43351 whole entry): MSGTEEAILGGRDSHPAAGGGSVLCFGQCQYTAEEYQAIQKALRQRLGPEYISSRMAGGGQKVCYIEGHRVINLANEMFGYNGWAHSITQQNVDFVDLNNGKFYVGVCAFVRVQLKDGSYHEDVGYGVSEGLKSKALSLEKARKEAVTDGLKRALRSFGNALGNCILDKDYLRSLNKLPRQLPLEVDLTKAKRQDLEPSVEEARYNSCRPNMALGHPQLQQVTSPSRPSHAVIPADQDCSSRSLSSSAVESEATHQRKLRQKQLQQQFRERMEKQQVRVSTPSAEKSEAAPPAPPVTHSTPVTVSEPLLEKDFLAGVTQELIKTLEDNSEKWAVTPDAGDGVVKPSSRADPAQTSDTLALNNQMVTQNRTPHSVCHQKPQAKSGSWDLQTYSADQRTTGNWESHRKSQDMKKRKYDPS
# [11] = NIH3T3 cell viability loss – ATP luminescence, mouse fibroblasts, counter-screen, dose response (AID 2010); type: functional, cell-based;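 further: cells exposed to compound for about 90 hours before reading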
# HEK293 [12] = assay: NOD2 signaling inhibitors in MDP-stimulated cells, cell-based, uHTS, luminescence (AID 2001); type: functional; conditions: Homo sapiens
# [13] = target: Nucleotide-binding oligomerization domain-containing protein 2 (Homo sapiens, UniProt Q9HC29); assay: inhibition of NOD2-driven NF-kB reporter – cell-based, luminescence, uHTS, HEK293 (AID 1566); type: functional
# Chain of Nucleotide-binding oligomerization domain-containing protein 2 (Q9HC29 whole entry, the tested form may be a part): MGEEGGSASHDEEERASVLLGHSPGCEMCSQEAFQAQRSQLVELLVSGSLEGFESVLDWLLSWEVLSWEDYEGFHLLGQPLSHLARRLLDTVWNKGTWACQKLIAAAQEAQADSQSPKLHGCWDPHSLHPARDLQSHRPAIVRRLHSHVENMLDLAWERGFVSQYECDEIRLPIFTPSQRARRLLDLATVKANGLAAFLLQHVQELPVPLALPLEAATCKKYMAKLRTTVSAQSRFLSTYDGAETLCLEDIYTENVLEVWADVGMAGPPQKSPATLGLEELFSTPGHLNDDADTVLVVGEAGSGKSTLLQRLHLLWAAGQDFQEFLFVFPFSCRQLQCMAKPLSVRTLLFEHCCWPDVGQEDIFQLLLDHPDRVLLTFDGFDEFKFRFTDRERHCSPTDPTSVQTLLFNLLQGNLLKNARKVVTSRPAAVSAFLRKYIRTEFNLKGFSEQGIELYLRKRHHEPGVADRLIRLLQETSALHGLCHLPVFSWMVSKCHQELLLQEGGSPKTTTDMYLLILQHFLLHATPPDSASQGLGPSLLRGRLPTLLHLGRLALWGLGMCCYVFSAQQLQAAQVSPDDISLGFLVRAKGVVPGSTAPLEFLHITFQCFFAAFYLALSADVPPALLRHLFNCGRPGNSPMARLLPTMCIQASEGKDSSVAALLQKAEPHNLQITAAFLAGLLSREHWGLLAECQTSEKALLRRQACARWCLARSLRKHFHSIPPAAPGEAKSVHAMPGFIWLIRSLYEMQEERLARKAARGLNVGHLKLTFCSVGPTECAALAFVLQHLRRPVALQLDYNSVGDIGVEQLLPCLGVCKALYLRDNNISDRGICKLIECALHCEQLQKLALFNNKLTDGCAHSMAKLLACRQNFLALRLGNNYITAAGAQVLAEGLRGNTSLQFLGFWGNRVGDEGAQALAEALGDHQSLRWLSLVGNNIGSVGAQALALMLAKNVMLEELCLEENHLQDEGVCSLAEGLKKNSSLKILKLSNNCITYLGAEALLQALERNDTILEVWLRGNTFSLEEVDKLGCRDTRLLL
# HEK293 [14] = assay: cells; type: functional, cell-based; conditions: Homo sapiens
# HEK293 [15] = assay: cells; type: functional, cell-based; conditions: Homo sapiens; remark: listed apart in the source
# HEK293 [16] = assay: inhibition of NOD1-driven NF-kB reporter – cell-based, luminescence, uHTS, primary screen (AID 1578); type: functional; conditions: Homo sapiens
# HEK293 [17] = assay: cells; type: functional, cell-based; conditions: Homo sapiens; remark: listed apart in the source
# [18] = target: T4, Zinc finger protein mex-5 (Caenorhabditis elegans, UniProt Q9XUB2); assay: potency of MEX-5 RNA-binding blockers – biochemical, C. elegans, fluorescence polarization, dose response (AID 1960)
# T4 sequence (Q9XUB2 whole entry): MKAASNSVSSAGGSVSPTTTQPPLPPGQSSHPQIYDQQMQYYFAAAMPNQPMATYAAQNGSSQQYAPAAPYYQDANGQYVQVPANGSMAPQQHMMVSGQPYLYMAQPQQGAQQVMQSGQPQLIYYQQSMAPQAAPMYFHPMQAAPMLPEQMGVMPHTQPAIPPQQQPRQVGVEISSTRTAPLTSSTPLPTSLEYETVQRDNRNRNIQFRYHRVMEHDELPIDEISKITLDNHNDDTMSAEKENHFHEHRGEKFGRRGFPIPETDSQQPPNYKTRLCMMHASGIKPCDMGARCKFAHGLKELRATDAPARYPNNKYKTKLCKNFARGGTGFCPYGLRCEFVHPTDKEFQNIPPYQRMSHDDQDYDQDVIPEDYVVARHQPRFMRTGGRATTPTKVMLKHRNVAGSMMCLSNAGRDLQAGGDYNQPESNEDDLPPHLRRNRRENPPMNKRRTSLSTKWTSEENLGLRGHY
# [19] = target: T5, RNA-binding protein pos-1 (Caenorhabditis elegans, UniProt G5EF15); assay: disruptors of C. elegans POS-1 RNA interaction – biochemical, fluorescence polarization, dose response (AID 1964);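 further: purified POS-1 fused to maltose binding protein made in E. coli; potency of compounds blocking POS-1 binding to fluorescent RNA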
# T5 sequence (G5EF15 whole entry): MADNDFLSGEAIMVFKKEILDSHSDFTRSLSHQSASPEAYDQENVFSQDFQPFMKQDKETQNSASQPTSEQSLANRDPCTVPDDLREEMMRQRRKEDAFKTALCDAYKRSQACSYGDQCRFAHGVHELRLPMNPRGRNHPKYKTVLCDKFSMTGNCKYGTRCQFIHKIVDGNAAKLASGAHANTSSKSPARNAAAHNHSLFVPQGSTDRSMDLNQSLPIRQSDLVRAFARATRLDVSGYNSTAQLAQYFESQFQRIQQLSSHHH
# Coagulation factor XII = target: T6, Coagulation factor XII (Homo sapiens, UniProt P00748); type: functional;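 further: activated factor XIIa alpha cleaving a fluorogenic AMC peptide substrate; inhibitor potency from loss of enzyme activity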
# T6 sequence (P00748 whole entry): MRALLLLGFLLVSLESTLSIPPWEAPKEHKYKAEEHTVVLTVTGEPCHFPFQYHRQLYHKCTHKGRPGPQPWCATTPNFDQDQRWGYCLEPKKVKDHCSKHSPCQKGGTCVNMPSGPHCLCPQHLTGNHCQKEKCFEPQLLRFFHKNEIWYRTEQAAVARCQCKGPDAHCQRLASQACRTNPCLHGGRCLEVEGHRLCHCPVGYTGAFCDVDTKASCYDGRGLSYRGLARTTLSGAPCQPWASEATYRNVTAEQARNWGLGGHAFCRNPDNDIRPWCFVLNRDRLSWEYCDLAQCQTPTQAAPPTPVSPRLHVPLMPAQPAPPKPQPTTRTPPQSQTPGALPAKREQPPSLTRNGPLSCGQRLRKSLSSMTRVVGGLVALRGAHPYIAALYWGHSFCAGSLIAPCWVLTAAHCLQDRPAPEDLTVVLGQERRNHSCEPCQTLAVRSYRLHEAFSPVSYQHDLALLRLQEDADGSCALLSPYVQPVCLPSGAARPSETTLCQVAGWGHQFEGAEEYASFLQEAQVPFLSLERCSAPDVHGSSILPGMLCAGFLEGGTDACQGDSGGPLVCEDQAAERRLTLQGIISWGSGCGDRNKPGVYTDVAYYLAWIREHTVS
# Cytochrome P450 2C9 = Cytochrome P450 2C9 (Homo sapiens, UniProt P11712)
# Cytochrome P450 1A2 = target: T7, Cytochrome P450 1A2 (Homo sapiens, UniProt P05177);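 further: PubChem cytochrome P450 panel assay, CYP1A2 panel member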
# T7 sequence (P05177 whole entry): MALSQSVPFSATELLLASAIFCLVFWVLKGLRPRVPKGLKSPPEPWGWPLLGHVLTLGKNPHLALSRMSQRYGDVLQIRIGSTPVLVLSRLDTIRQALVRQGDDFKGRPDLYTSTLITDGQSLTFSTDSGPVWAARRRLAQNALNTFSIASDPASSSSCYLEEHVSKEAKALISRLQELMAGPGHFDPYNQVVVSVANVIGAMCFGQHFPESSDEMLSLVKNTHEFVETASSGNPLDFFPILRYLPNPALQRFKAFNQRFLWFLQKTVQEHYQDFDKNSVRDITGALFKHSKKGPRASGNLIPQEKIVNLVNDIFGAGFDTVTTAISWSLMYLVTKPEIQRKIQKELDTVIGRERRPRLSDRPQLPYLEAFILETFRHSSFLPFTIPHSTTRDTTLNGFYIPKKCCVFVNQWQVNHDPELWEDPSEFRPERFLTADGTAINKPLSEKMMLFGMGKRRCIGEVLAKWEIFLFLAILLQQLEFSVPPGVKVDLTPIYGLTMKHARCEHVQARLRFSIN
# Cytochrome P450 2D6 = Cytochrome P450 2D6 (Homo sapiens, UniProt P10635);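 further: CYP2D6 member of a cytochrome P450 panel assay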
structure (smiles),measurement,setting,value
CCn1c(=O)cc(SCC(=O)Nc2cccc(SC)c2)c2ccccc21,EC50,[1],> 26.5 µM (not active)
same,EC50,[2],69.8 µM (inactive)
same,EC50,[3],> 79.4 µM (not active)
CCCCCCCOC(=O)C[N+](C)(C)CCOC1CC2CCC1(C)C2(C)C (centres undefined),EC50,[4],> 150 µM (inactive)
same,EC50,Streptococcus,9.21 µM (active)
same,EC50,[5],0.997 µM (active)
same,EC50,[6],15.8 µM (active)
same,IC50,Cysteine protease ATG4B,7.62 µM (active)
same,IC50,Phospholipase A2,10.3 µM (active)
same,EC50,[7],0.224 µM (active)
same,EC50,Streptokinase A,5.77 µM (active)
same,EC50,[8],3.84 µM (active)
same,CC50,Vero,> 25 µM (active)
same,EC50,[9],20.2 µM (active)
same,AC50,[10],29.2 µM (active)
same,EC50,[11],> 60 µM (not active)
COc1ccc(-c2cc(=O)oc3cc(O)ccc23)cc1,IC50,HEK293 [12],3.06 µM (active)
same,EC50,[13],5.73 µM (active)
same,IC50,HEK293 [14],> 20 µM (inactive)
same,IC50,HEK293 [15],2.45 µM (active)
same,EC50,HEK293 [16],5.67 µM (active)
same,IC50,HEK293 [17],> 20 µM (inactive)
Cc1nnc(N2C(=O)C(O)=C(C(=O)c3ccco3)C2c2ccc(F)cc2)s1 (centres undefined),EC50,[18],32.9 µM (active)
same,EC50,[19],34.2 µM (active)
same,EC50,[1],27 µM (not active)
same,EC50,[2],> 79.4 µM (inactive)
same,EC50,[3],> 79.4 µM (not active)
Nn1c(C2CCCCC2)nc2ccccc2c1=O,IC50,Coagulation factor XII,> 50 µM (inactive)
Oc1nc(-c2ccccc2)cc(C(F)(F)F)n1,AC50,Cytochrome P450 2C9,6.31 µM (inconclusive)
same,AC50,Cytochrome P450 1A2,11.2 µM (inconclusive)
same,AC50,Cytochrome P450 2D6,inconclusive
Cc1onc(-c2ccccc2)c1CNC(=O)Nc1cccc(Cl)c1,IC50,Cysteine protease ATG4B,15 µM (active)
same,IC50,Phospholipase A2,8.35 µM (active)
COc1cccc(NC(=O)Nc2ccccc2SC)c1,IC50,Coagulation factor XII,> 50 µM (inactive)
COc1cccc(Nc2nc(-c3sc(NC(=O)c4ccccc4)nc3C)cs2)c1,EC50,[1],27.9 µM (not active)
same,EC50,[2],14.8 µM (inactive)
same,EC50,[3],> 79.4 µM (not active)
Cc1ccc2cccc(/N=C/c3c(C)[nH]n(-c4ccccc4)c3=O)c2n1,IC50,HEK293 [12],7.67 µM (active)
same,EC50,[13],> 20 µM (inactive)
same,IC50,HEK293 [14],> 20 µM (inactive)
same,IC50,HEK293 [15],> 20 µM (inactive)
same,EC50,HEK293 [16],4.72 µM (active)
same,IC50,HEK293 [17],> 20 µM (inactive)
Cc1cc(Nc2ccc(C)c(C)c2)n2nc(C)nc2n1,IC50,Coagulation factor XII,> 50 µM (inactive)
